Results from ChEMBL document CHEMBL4813934, “Investigation of Selected Flavonoid Derivatives as Potent FLT3 Inhibitors for the Potential Treatment of Acute Myeloid Leukemia” (J Nat Prod, 2021).

How the values were obtained:
[1] = target: Receptor-type tyrosine-protein kinase FLT3 (Homo sapiens, UniProt P36888, D835Y); test: Inhibition of recombinant His-tagged human FLT3 D835Y mutant (564 to 958 residues) expressed in baculovirus expression system using tyr 02 as substrate incubated for 1 hr by Z'-LYTE assay
[2] = target: Receptor-type tyrosine-protein kinase FLT3 (Homo sapiens, UniProt P36888, ITD); test: Inhibition of recombinant N-terminal GST/His6-tagged human FLT3 ITD mutant (571 to 993 residues) expressed in Sf9 insect cells incubated for 1 hr by LanthaScreen assay
MV4-11 = test: Cytotoxicity against human MV4-11 cells assessed as reduction in cell viability measured after 72 hrs by MTT assay; format: functional, cell-based; conditions: MV4-11, 72 h
[3] = target: T1, Receptor-type tyrosine-protein kinase FLT3 (Homo sapiens, UniProt P36888); test: Inhibition of recombinant His-tagged human FLT3 (564 to 958 residues) expressed in baculovirus expression system using tyr 02 as substrate incubated for 1 hr by Z'-LYTE assay
T1 sequence (P36888 whole entry): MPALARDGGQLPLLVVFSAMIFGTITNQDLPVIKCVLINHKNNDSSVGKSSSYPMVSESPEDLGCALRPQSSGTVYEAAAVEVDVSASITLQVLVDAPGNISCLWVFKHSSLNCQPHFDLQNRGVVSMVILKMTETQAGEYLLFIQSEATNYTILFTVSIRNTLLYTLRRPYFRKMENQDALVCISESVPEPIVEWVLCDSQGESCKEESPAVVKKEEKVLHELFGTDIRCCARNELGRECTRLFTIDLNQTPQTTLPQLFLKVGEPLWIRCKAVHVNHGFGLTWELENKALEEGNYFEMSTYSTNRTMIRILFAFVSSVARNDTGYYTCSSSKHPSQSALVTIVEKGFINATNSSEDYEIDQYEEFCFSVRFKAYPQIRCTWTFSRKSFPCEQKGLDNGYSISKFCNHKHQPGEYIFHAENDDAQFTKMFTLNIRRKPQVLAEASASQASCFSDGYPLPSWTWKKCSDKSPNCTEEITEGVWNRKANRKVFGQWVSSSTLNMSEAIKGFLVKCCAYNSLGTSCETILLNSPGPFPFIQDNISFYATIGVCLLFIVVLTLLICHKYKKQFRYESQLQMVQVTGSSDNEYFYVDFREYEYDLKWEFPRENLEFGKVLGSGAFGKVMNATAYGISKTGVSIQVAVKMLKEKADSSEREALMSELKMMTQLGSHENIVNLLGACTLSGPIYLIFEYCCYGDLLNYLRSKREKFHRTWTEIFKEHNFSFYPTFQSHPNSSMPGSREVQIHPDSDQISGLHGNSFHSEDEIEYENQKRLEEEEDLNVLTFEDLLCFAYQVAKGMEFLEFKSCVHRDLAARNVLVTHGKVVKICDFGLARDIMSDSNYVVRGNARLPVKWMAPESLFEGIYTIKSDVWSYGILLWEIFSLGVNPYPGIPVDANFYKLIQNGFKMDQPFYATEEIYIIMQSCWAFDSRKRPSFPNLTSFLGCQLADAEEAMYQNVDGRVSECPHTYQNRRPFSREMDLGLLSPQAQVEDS

[4] = target: Receptor-type tyrosine-protein kinase FLT3 (Homo sapiens) (UniProt P36888); test: Inhibition of recombinant His-tagged human FLT3 (564 to 958 residues) expressed in baculovirus expression system at 10 uM using tyr 02 as substrate incubated for 1 hr by Z'-LYTE assay relative to control
MOLM-13 = test: Cytotoxicity against human MOLM-13 cells assessed as reduction in cell viability measured after 72 hrs by MTT assay; format: functional, cell-based; conditions: MOLM-13, 72 h

COc1ccc(-c2cc(=O)c3c(O)cc(O)cc3o2)cc1 [ACACETIN]
IC50 [1]: 1 µM
IC50 [2]: 0.21 µM
IC50 (MV4-11): 6.8 µM
IC50 [3]: 0.88 µM
inhibition [4]: > 80%
IC50 (MOLM-13): 9.1 µM

COc1ccc(-c2cc(=O)c3c(O)c(OC)c(OC)cc3o2)cc1O [EUPATORIN]
IC50 [3]: 1.1 µM
inhibition [4]: > 80%

COc1cc(O)c2c(=O)cc(-c3ccc(O)cc3)oc2c1 [GENKWANIN]
IC50 [3]: 1.7 µM
inhibition [4]: > 80%
